pIC50: −log10 of the molar value.

In the first assay the test system is Lox-IMVI melanoma cell line. Kind of assay: Lox-IMVI anti-proliferative assay (growth inhibition, Cell Titer-Glo). It is filed as cell-based, human. As to conditions: Homo sapiens; IC50 activity level in the cell-based Lox-IMVI anti-proliferative assay; read-out: Activity. In a few lines: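 Lox-IMVI cells in RPMI+10% FBS exposed 72 h at 37 °C to 10-point, 3-fold dilutions (0.5 nM–10 μM; 0.2% DMSO final), in duplicate. Viability by Cell Titer-Glo luminescence, with a t0 cell-number reading; data as % of DMSO control; IC50 from a four-parameter logistic fit.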
(In general: Cellular ATP, detected with luciferase, serves as a proxy for viable cell number.)
For the molecule `NC(=O)[C@H]1CC[C@@H](n2c(Nc3c(F)cc(F)cc3Cl)nc3cnc(N[C@@H]4CC[C@@H](O)C4)nc32)CC1` [Example 210, (1S,4s)-4-(8-(2-chloro-4,6-difluorophenylamino)-2-((1R,3R)-3-hydroxycyclopentylamino)-9H-purin-9-yl)cyclohexanecarboxamide], the pIC50 was below 6.00. On the same count and under the same terms, as for `NC(=O)[C@H]1CC[C@@H](n2c(Nc3ccccc3Cl)nc3cnc(NC4CCCC4)nc32)CC1` [Example 93, (1s,4s)-4-(8-(2-chlorophenylamino)-2-(cyclopentylamino)-9H-purin-9-yl)cyclohexanecarboxamide], the figure is below 6.00; as for `NC(=O)[C@H]1CC[C@@H](n2c(Nc3c(F)cc(Cl)cc3Cl)nc3cnc(N[C@@H]4CCC[C@H]4O)nc32)CC1` [Example 255, (1S,4s)-4-(8-(2,4-dichloro-6-fluorophenylamino)-2-((1R,2R)-2-hydroxycyclopentylamino)-9H-purin-9-yl)cyclohexanecarboxamide], below 6.00. As for `NC(=O)[C@H]1CC[C@@H](n2c(Nc3c(Cl)cccc3Cl)nc3cnc(N[C@H]4CCC[C@@H](O)C4)nc32)CC1` [Example 370, (1R,4s)-4-(8-(2,6-dichlorophenylamino)-2-((1S,3R)-3-hydroxycyclohexylamino)-9H-purin-9-yl)cyclohexanecarboxamide], the pIC50 is below 6.00.

For the molecule `NC(=O)[C@H]1CC[C@@H](n2c(Nc3c(Cl)cc(F)cc3Cl)nc3cnc(N[C@@H]4CCOC4)nc32)CC1` [Example 222, (1S,4s)-4-(8-(2,6-dichloro-4-fluorophenylamino)-2-((R)-tetrahydrofuran-3-ylamino)-9H-purin-9-yl)cyclohexanecarboxamide], the pIC50 was 6.00 to 6.30. For `NC(=O)[C@H]1CC[C@@H](n2c(Nc3c(F)ccc(Cl)c3F)nc3cnc(N[C@H]4CCC[C@@H]4O)nc32)CC1` [Example 273, (1R,4s)-4-(8-(3-chloro-2,6-difluorophenylamino)-2-((1S,2S)-2-hydroxycyclopentylamino)-9H-purin-9-yl)cyclohexanecarboxamide], the pIC50 was below 6.00.

As for `NC(=O)[C@H]1CC[C@@H](n2c(Nc3c(F)ccc(F)c3F)nc3cnc(N[C@@H]4CCC[C@H]4O)nc32)CC1` [Example 260, (1S,4s)-4-(2-((1R,2R)-2-hydroxycyclopentylamino)-8-(2,3,6-trifluorophenylamino)-9H-purin-9-yl)cyclohexanecarboxamide], the pIC50 is below 6.00. For the molecule `CC1(C)CC[C@@H](Nc2ncc3nc(Nc4c(F)cc(Cl)cc4F)n([C@H]4CC[C@@H](C(N)=O)CC4)c3n2)C[C@H]1O` [Example 386, (1S,4s)-4-(8-(4-chloro-2,6-difluorophenylamino)-2-((1R,3R)-3-hydroxy-4,4-dimethylcyclohexylamino)-9H-purin-9-yl)cyclohexanecarboxamide], the pIC50 was below 6.00. `NC(=O)[C@H]1CC[C@@H](n2c(Nc3c(F)cc(Cl)cc3Cl)nc3cnc(N[C@H]4CCCOC4)nc32)CC1` [Example 204, (1R,4s)-4-(8-(2,4-dichloro-6-fluorophenylamino)-2-((S)-tetrahydro-2H-pyran-3-ylamino)-9H-purin-9-yl)cyclohexanecarboxamide]: the pIC50 was below 6.00.

The same assay, now with this note: Homo sapiens; Lox-IMVI anti-proliferative assay, IC50 activity level; read-out: Activity.
As to `NC(=O)[C@H]1CC[C@@H](n2c(Nc3c(F)cc(Cl)cc3Cl)nc3cnc(NCC(F)(F)CO)nc32)CC1` [Example 451, (1s,4s)-4-(8-(2,4-dichloro-6-fluorophenylamino)-2-(2,2-difluoro-3-hydroxypropylamino)-9H-purin-9-yl)cyclohexanecarboxamide], the pIC50 was below 6.00. Still for that read-out and setting: as for `C[C@]1(C(N)=O)CC[C@@H](n2c(Nc3c(F)cc(C#N)cc3Cl)nc3cnc(N[C@@H]4CCC[C@H](O)C4)nc32)CC1` [Example 568, (1S,4s)-4-(8-(2-chloro-4-cyano-6-fluorophenylamino)-2-((1R,3S)-3-hydroxycyclohexylamino)-9H-purin-9-yl)-1-methylcyclohexanecarboxamide], the figure is 6.30 to 6.60. Same read-out and setting: to `NC(=O)[C@H]1CC[C@@H](n2c(Nc3c(Cl)cc(OC(F)(F)F)cc3Cl)nc3cnc(NC4CCCC4)nc32)CC1` [Example 597, (1s,4s)-4-(2-(cyclopentylamino)-8-(2,6-dichloro-4-(trifluoromethoxy)phenylamino)-9H-purin-9-yl)cyclohexanecarboxamide] belongs below 6.00; to `NC(=O)[C@H]1CC[C@@H](n2c(Nc3cc(F)c(Cl)cc3F)nc3cnc(N[C@H]4CCC[C@H](O)C4)nc32)CC1` [Example 465, (1R,4s)-4-(8-(4-chloro-2,5-difluorophenylamino)-2-((1S,3S)-3-hydroxycyclohexylamino)-9H-purin-9-yl)cyclohexanecarboxamide], below 6.00; to `N#Cc1cc(F)c(Nc2nc3cnc(N[C@H]4CCCC[C@H]4O)nc3n2[C@H]2CC[C@@H](C(N)=O)CC2)c(Cl)c1` [Example 517, (1R,4s)-4-(8-(2-chloro-4-cyano-6-fluorophenylamino)-2-((1S,2R)-2-hydroxycyclohexylamino)-9H-purin-9-yl)cyclohexanecarboxamide], below 6.00.

For the molecule `C[C@]1(C(N)=O)CC[C@H](n2c(Nc3c(F)cc(F)cc3F)nc3cnc(NC4CCCC4)nc32)CC1` [Example 494, (1r,4r)-4-(2-(cyclopentylamino)-8-(2,4,6-trifluorophenylamino)-9H-purin-9-yl)-1-methylcyclohexanecarboxamide], the pIC50 was below 6.00. As for `C[C@]1(C(N)=O)CC[C@H](n2c(Nc3c(Cl)cc(Cl)cc3Cl)nc3cnc(NC4CCCC4)nc32)CC1` [Example 490, (1r,4r)-4-(2-(cyclopentylamino)-8-(2,4,6-trichlorophenylamino)-9H-purin-9-yl)-1-methylcyclohexanecarboxamide], the pIC50 was below 6.00.

The assay is the same for the next values; noted with them: Homo sapiens; Lox-IMVI melanoma cell line, anti-proliferative assay; read-out: Activity (IC50 activity level).
Turning to `C[C@]1(C(N)=O)CC[C@@H](n2c(Nc3c(F)cc(Cl)cc3Cl)nc3cnc(N[C@H]4CCOC[C@H]4F)nc32)CC1` [Example 716, (1R,4s)-4-(8-(2,4-dichloro-6-fluorophenylamino)-2-((3S,4S)-3-fluorotetrahydro-2H-pyran-4-ylamino)-9H-purin-9-yl)-1-methylcyclohexanecarboxamide], the pIC50 is above 6.60. The same measure, in the same setting: as for `N#Cc1cc(F)c(Nc2nc3cnc(N[C@@H]4CCOC[C@H]4F)nc3n2[C@H]2CC[C@@H](C(N)=O)CC2)c(Cl)c1` [Example 629, (1S,4s)-4-(8-(2-chloro-4-cyano-6-fluorophenylamino)-2-((3S,4R)-3-fluorotetrahydro-2H-pyran-4-ylamino)-9H-purin-9-yl)cyclohexanecarboxamide], the figure is above 6.60; as for `C[C@]1(C(N)=O)CC[C@@H](n2c(Nc3c(F)cc(Cl)cc3Cl)nc3cnc(N[C@@H]4CC[C@@H](O)C4)nc32)CC1` [Example 637, (1S,4s)-4-(8-(2,4-dichloro-6-fluorophenylamino)-2-((1R,3R)-3-hydroxycyclopentylamino)-9H-purin-9-yl)-1-methylcyclohexanecarboxamide], above 6.60; as for `C[C@]1(C(N)=O)CC[C@@H](n2c(Nc3c(F)cc(Cl)cc3F)nc3cnc(N[C@@H]4CC[C@@H](O)C4)nc32)CC1` [Example 639, (1S,4s)-4-(8-(4-chloro-2,6-difluorophenylamino)-2-((1R,3R)-3-hydroxycyclopentylamino)-9H-purin-9-yl)-1-methylcyclohexanecarboxamide], above 6.60.

With `NC(=O)[C@H]1CC[C@@H](n2c(Nc3c(F)cc(F)cc3F)nc3cnc(N[C@@H]4CCCN(c5ccccc5)C4)nc32)CC1` [Example 746, (1S,4s)-4-(2-((R)-1-phenylpiperidin-3-ylamino)-8-(2,4,6-trifluorophenylamino)-9H-purin-9-yl)cyclohexanecarboxamide], the pIC50 was below 6.00. For `NC(=O)[C@H]1CC[C@@H](n2c(Nc3c(Cl)cc(Cl)cc3Cl)nc3cnc(N[C@@H]4CCCN(C(=O)Nc5ccccc5)C4)nc32)CC1` [Example 779, (R)-3-(9-((1s,4S)-4-carbamoylcyclohexyl)-8-(2,4,6-trichlorophenylamino)-9H-purin-2-ylamino)-N-phenylpiperidine-1-carboxamide], the pIC50 was 6.00 to 6.30.

Regarding `C[C@]1(C(N)=O)CC[C@@H](n2c(Nc3c(F)cc(F)cc3Cl)nc3cnc(N[C@@H]4CCOC[C@H]4F)nc32)CC1` [Example 715, (1S,4s)-4-(8-(2-chloro-4,6-difluorophenylamino)-2-((3S,4R)-3-fluorotetrahydro-2H-pyran-4-ylamino)-9H-purin-9-yl)-1-methylcyclohexanecarboxamide], the pIC50 was above 6.60. In the case of `CS(=O)(=O)C1CC(Nc2ncc3nc(Nc4c(F)cc(Cl)cc4Cl)n([C@H]4CC[C@@H](C(N)=O)CC4)c3n2)C1` (stereo partly drawn) [Example 731, (1s,4s)-4-(8-(2,4-dichloro-6-fluorophenylamino)-2-(3-(methylsulfonyl)cyclobutylamino)-9H-purin-9-yl)cyclohexanecarboxamide], the pIC50 was below 6.00. Still for that read-out and setting: as for `C[C@]1(C(N)=O)CC[C@@H](n2c(Nc3c(F)cc(F)cc3Cl)nc3cnc(N[C@@H]4CCC[C@@H](O)C4)nc32)CC1` [Example 618, (1S,4s)-4-(8-(2-chloro-4,6-difluorophenylamino)-2-((1R,3R)-3-hydroxycyclohexylamino)-9H-purin-9-yl)-1-methylcyclohexanecarboxamide], the figure is 6.00 to 6.30; as for `C[C@]1(C(N)=O)CC[C@@H](n2c(Nc3c(Cl)cc(Cl)cc3Cl)nc3cnc(N[C@H]4CCOC[C@H]4F)nc32)CC1` [Example 719, (1R,4s)-4-(2-((3S,4S)-3-fluorotetrahydro-2H-pyran-4-ylamino)-8-(2,4,6-trichlorophenylamino)-9H-purin-9-yl)-1-methylcyclohexanecarboxamide], above 6.60; as for `CC(=O)N1CCC[C@@H](Nc2ncc3nc(Nc4c(F)cc(F)cc4Cl)n([C@H]4CC[C@@H](C(N)=O)CC4)c3n2)C1` [Example 797, (1S,4s)-4-(2-((R)-1-acetylpiperidin-3-ylamino)-8-(2-chloro-4,6-difluorophenylamino)-9H-purin-9-yl)cyclohexanecarboxamide], below 6.00.

The values are drawn from patent publication US11590139B2, “Substituted aminopurine compounds, compositions thereof, and methods of treatment therewith” (Signal Pharmaceuticals, LLC, priority 2014, dated 2023).
